# Experiments:
# [1] = buffer; cited from earlier work
# [2] = test system: cornea; conditions: riboflavin drops, UVA 30 minutes, ablated cornea; cited from earlier work
# [3] = test system: keratoconus; conditions: 0.1% riboflavin drops, UVA 3 mW/cm 30 minutes, deepithelialized cornea; cited from earlier work
# [4] = test system: porcine cornea; experiment: Stress-strain analysis of corneal buttons after photoinitiator and UV exposure
# [5] = test system: keratoconus; experiment: Treatment of keratoconus with photoinitiator and UV irradiation; assay type: in vivo; conditions: 0.35M sodium persulfate drops; one 10-second UV burst 1000 mW
# Protocol: A subject is diagnosed with keratoconus in both eyes. They are not able to wear contact lenses. […] Corneal hysteresis measurements are made using the Reichert Ocular Response Analyzer. Corneal hysteresis (CH) is at least 3 numbers less than the normal population. Corneal topography is also conducted to identify the location of keratoconus. The subject is chosen to receive treatment using short wavelength ultraviolet irradiation following administration of a low concentration photoinitiator. Drops of 0.35M sodium persulfate in 0.02M sodium phosphate buffer at a pH of 7.6-8.0 are administered to the cornea in an applicator designed to limit exposure to the location of keratoconus on the corneal surface. The cornea is then exposed to one 10-second burst of ultraviolet irradiation at an intensity of 1000 mW.
# [6] = test system: post-LASIK ectasia; experiment: Treatment for post-LASIK ectasia with photoinitiator and UV irradiation; assay type: in vivo; conditions: 0.35M sodium persulfate drops; one 10-second UV burst 1000 mW
# Protocol: A subject is diagnosed with ectasia following a LASIK procedure. […] Mechanical stability is measured using the Reichert Ocular Response Analyzer. CH values correlate with reduced mechanical stability. Pachymetry of the cornea measures a corneal stromal thickness of 300 microns or less in areas of the cornea, indicative of post-LASIK ectasia. The subject is chosen to receive treatment using short wavelength ultraviolet irradiation following administration of a low concentration photoinitiator. Drops of 0.35M sodium persulfate in 0.02M sodium phosphate buffer at a pH of 7.6-8.0 are administered to the cornea in an applicator designed to limit exposure to the location of keratoconus on the corneal surface. The cornea is then exposed to one 10-second burst of ultraviolet irradiation at an intensity of 1000 mW.
# [7] = test system: cornea following orthokeratology lens wear; experiment: Corneal stabilization following orthokeratology lens wear; assay type: in vivo; conditions: treated eye compared to untreated control eye; 0.35M sodium persulfate; one 10-second UV burst 1000 mW
# Description: Subjects are fitted with lenses for orthokeratology. The subjects have one (1) eye treated by exposure to ultraviolet irradiation following pretreatment with a photoinitiator. The contralateral eye is an untreated control. Selection of the eye to be treated is random. Examinations at the initial visit and at each follow-up include unaided visual acuity, slit-lamp examination, refractive error, corneal topography, and corneal hysteresis using the Reichert Ocular Response Analyzer. CH values correlate with reduced mechanical stability. The subject is chosen to receive treatment using short wavelength ultraviolet irradiation following administration of a low concentration photoinitiator. Drops of 0.35M sodium persulfate in 0.02M sodium phosphate buffer at a pH of 7.6-8.0 are administered to the cornea in an applicator designed to limit exposure to the corneal surface. The cornea is then exposed to one 10-second burst of ultraviolet irradiation at an intensity of 1000 mW.
structure (smiles),measurement,setting,value
"CC(C#N)(CCC(=O)O)N=NC(C)(C#N)CCC(=O)O (stereo not drawn) [4,4′-Azobis(4-cyanovaleric acid)]",10th Half-life ° C. (Solvent),[1],69 (water) ° C.
Cc1cc2nc3c(=O)[nH]c(=O)nc-3n(C[C@H](O)[C@H](O)[C@H](O)CO)c2cc1C [riboflavin],corneal biomechanical stiffness,[2],significant increase
same,clinical treatment of keratoconus,[3],successful
O=S(=O)([O-])OOS(=O)(=O)[O-].[Na+].[Na+] [sodium persulfate],low modulus following exposure to ultraviolet irradiation,"[4]; 0.35M sodium persulfate 1 min, 10-second bursts UV 1000 mW, 310-400 nm, acetic anhydride softened cornea",increased
same,low modulus,[4]; four 10-second UV exposures,nearly equal to untreated control cornea
same,strengthening (low modulus),"[4]; single 10-second UV exposure, FIG. 1",maximum
same,low modulus,"[4]; subsequent UV exposures, FIG. 1",reduced the increase in low modulus
same,corneal hysteresis (CH),[5],increase
same,vision,[5],significant improvement
same,corneal hysteresis (CH),[6],two-fold increase
same,vision,[6],significant improvement
same,regression of visual acuity,[7],minimal to no regression
